Measured values published in patent US9242970B2 (ACTELION PHARMACEUTICALS LTD., priority 2010, dated 2016).
Read-outs that look alike come from different tables or passages of the source.

Key:
[1] = molecular target: human orexin-1 receptor (Homo sapiens (Human), UniProt O43613); assay: In vitro assay: intracellular calcium measurements (FLIPR), antagonistic activity; type: cell-based; details: CHO cells, 3 nM orexin-A, marked values are geometric means of n = 2-6, read-out: IC50 OX1
Method: (§1) In Vitro Assay: Intracellular Calcium Measurements:
(§2) Chinese hamster ovary (CHO) cells expressing the human orexin-1 receptor and the human orexin-2 receptor, respectively, are grown in culture medium (Ham F-12 with L-Glutamine) containing 300 µg/ml G418, 100 U/ml penicillin, 100 µg/ml streptomycin and 10% heat inactivated fetal calf serum (FCS). The cells are seeded at 20,000 cells/well into 384-well black clear bottom sterile plates (Greiner). The seeded plates are incubated overnight at 37° C. in 5% CO2.
(§3) Fluorescence is measured for each well at 1 second intervals, and the height of each fluorescence peak is compared to the height of the fluorescence peak induced by 3 nM orexin-A with vehicle in place of antagonist. […] Optimized conditions were achieved by adjustment of pipetting speed and cell splitting regime. The calculated IC50 values may fluctuate depending on the daily cellular assay performance. Fluctuations of this kind are known to those skilled in the art.

[2] = molecular target: human orexin-2 receptor (Homo sapiens (Human), UniProt O43614); assay: as above; type: cell-based; details: read-out: IC50 OX2
Method: as §1, §2, §3

[3] = CHO cells, 3 nM orexin-A, compound incubation 120 min, marked values are geometric means of n = 2-6
[4] = compound incubation time of 10 min
[5] = CHO cells, 3 nM orexin-A, compound incubation time of 10 min, marked values are geometric means of n = 2-6

human orexin-2 receptor, sequence (O43614 whole entry): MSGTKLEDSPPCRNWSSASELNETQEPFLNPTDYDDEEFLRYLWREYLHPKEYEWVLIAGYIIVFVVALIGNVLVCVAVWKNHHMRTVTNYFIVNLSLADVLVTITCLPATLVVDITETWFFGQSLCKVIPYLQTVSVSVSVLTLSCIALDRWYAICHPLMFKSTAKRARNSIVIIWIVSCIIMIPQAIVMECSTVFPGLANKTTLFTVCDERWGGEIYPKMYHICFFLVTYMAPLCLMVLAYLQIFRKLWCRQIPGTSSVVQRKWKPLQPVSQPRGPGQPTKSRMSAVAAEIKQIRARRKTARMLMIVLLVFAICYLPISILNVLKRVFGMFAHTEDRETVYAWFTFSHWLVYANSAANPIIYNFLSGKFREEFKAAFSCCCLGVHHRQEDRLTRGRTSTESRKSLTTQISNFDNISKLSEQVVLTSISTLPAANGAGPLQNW
human orexin-1 receptor, sequence (O43613 whole entry): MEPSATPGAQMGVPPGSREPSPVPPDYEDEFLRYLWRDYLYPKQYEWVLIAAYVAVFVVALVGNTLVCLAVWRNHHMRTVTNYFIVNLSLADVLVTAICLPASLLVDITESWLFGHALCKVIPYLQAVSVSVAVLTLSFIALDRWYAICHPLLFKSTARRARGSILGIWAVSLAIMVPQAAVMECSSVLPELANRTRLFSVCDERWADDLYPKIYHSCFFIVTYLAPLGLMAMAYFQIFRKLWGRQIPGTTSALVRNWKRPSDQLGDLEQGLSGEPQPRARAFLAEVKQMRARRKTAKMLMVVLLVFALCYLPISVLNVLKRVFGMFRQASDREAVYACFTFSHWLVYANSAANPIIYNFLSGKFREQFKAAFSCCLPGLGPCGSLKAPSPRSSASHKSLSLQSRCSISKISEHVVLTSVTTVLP

Compound	IC50 ([1]; compound incubation 120 min)	IC50 [2, 3]	other results
COc1ccc(Cl)c(OC)c1[C@@H]1C[C@@H](O)C(=O)N1Cc1ccc(OC(F)(F)F)cc1 (racemic) [Example 314, rac-(3R*,5S*)-5-(3-chloro-2,6-dimethoxyphenyl)-3-hydroxy-1-(4-(trifluoromethoxy)benzyl)pyrrolidin-2-one]	1100 nM	920 nM	
COc1cccc(OC)c1C1CCCCC(=O)N1Cc1cccc(-c2ccccc2)c1 (centres unmarked) [Example 72, 1-([1,1′-biphenyl]-3-ylmethyl)-7-(2,6-dimethoxyphenyl)azepan-2-one]	3 nM	12 nM	
O=C1[C@H](O)C[C@@H](c2c(F)cccc2OCCF)N1Cc1ccc(OC(F)(F)F)cc1 (racemic) [Example 432, rac-(3R*,5S*)-5-(2-fluoro-6-(2-fluoroethoxy)phenyl)-3-hydroxy-1-(4-(trifluoromethoxy)benzyl)pyrrolidin-2-one]	3960 nM	57 nM	
COc1cccc(OC)c1C1CCC(=O)N1Cc1cccc(-c2ccccc2)n1 (centres unmarked) [Example 121, 5-(2,6-dimethoxyphenyl)-1-((6-phenylpyridin-2-yl)methyl)pyrrolidin-2-one]	183 nM	105 nM	
COc1cccc(OC)c1C1CCCC(=O)N1Cc1nc2ccccc2s1 (centres unmarked) [Example 31, 1-(benzo[d]thiazol-2-ylmethyl)-6-(2,6-dimethoxyphenyl)piperidin-2-one]	941 nM	858 nM	
COc1cccc(OC(C)C)c1C1CCCC(=O)N1Cc1ccc(OC(F)(F)F)cc1 (centres unmarked) [Example 230, 6-(2-isopropoxy-6-methoxyphenyl)-1-(4-(trifluoromethoxy)benzyl)piperidin-2-one]			IC50 [1, 4]: 363 nM; IC50 [2, 5]: 85 nM
COc1cccc(OC)c1C1CCCC(=O)N1Cc1ccc2ncccc2c1 (centres unmarked) [Example 3, 6-(2,6-dimethoxyphenyl)-1-(quinolin-6-ylmethyl)piperidin-2-one]	154 nM	1000 nM	
COc1cccc(OC)c1C1CC(C)C(=O)N1Cc1cccc(-c2cscn2)c1 (centres unmarked) [Example 150, 5-(2,6-dimethoxyphenyl)-3-methyl-1-(3-(thiazol-4-yl)benzyl)pyrrolidin-2-one]	7 nM	47 nM	
COc1ccccc1C1CCCC(=O)N1Cc1ccc2ccccc2c1 (centres unmarked) [Example 236, 6-(2-methoxyphenyl)-1-(naphthalen-2-ylmethyl)piperidin-2-one]			IC50 [1, 4]: 1770 nM; IC50 [2, 5]: 369 nM
COc1ccc2c(c1C1CCCC(=O)N1Cc1cccc(-c3ncc(C)s3)c1)OCCO2 (centres unmarked) [Example 444, 6-(6-methoxy-2,3-dihydrobenzo[b][1,4]dioxin-5-yl)-1-(3-(5-methylthiazol-2-yl)benzyl)piperidin-2-one]	7 nM	8 nM	
COc1ccnc(OC)c1C1CCCC(=O)N1Cc1cccc(-c2ccccc2)c1 (centres unmarked) [Example 60, 1-([1,1′-biphenyl]-3-ylmethyl)-6-(2,4-dimethoxypyridin-3-yl)piperidin-2-one]	39 nM	34 nM	
CCOc1cccc(F)c1C1CC(C)C(=O)N1Cc1ccc(OC(F)F)c(Cl)c1 (centres unmarked) [Example 375, 1-(3-chloro-4-(difluoromethoxy)benzyl)-5-(2-ethoxy-6-fluorophenyl)-3-methylpyrrolidin-2-one]	715 nM	65 nM	
COc1cccc(OC)c1C1CC(C)C(=O)N1Cc1cc(OC(F)F)ccn1 (centres unmarked) [Example 204, 1-((4-(difluoromethoxy)pyridin-2-yl)methyl)-5-(2,6-dimethoxyphenyl)-3-methylpyrrolidin-2-one]			IC50 [1, 4]: 6380 nM; IC50 [2, 5]: 1260 nM
COc1cccc(OC)c1C1CCCC(=O)N1Cc1ccc2oc(C)nc2c1 (centres unmarked) [Example 249, 6-(2,6-dimethoxyphenyl)-1-((2-methylbenzo[d]oxazol-5-yl)methyl)piperidin-2-one]	334 nM	223 nM	
COc1cccc(OC)c1C1CC(C)C(=O)N1Cc1cccc(-c2ccccc2)n1 (centres unmarked) [Example 138, 5-(2,6-dimethoxyphenyl)-3-methyl-1-((6-phenylpyridin-2-yl)methyl)pyrrolidin-2-one]	32 nM	29 nM	
COc1cccc(OC)c1C1CCCC(=O)N1Cc1cc2ccccc2o1 (centres unmarked) [Example 180, 1-(benzofuran-2-ylmethyl)-6-(2,6-dimethoxyphenyl)piperidin-2-one]			IC50 [1, 4]: 1450 nM; IC50 [2, 5]: 170 nM
COc1cccc(OC)c1C1CCCC(=O)N1Cc1csc(C)n1 (centres unmarked) [Example 71, 6-(2,6-dimethoxyphenyl)-1-((2-methylthiazol-4-yl)methyl)piperidin-2-one]	> 12600 nM	6190 nM	

Compound	IC50 ([1]; compound incubation 120 min)	IC50 [2, 3]	other results
COc1cccc(OC)c1C1CCCC(=O)N1Cc1cnc(OC(F)F)c(Cl)c1 (centres unmarked) [Example 5, 1-((5-chloro-6-(difluoromethoxy)pyridin-3-yl)methyl)-6-(2,6-dimethoxyphenyl)piperidin-2-one]	224 nM	38 nM	
COc1cncc(OC)c1C1CCCCC(=O)N1Cc1ccc2c(c1)c1ccccc1n2C (centres unmarked) [Example 276, 7-(3,5-dimethoxypyridin-4-yl)-1-((9-methyl-9H-carbazol-3-yl)methyl)azepan-2-one]	347 nM	222 nM	
rac-(3R*,5S*)-(3-chloro-4-(trifluoromethoxy)benzyl)-5-(2-ethoxy-6-fluorophenyl)-3-hydroxypyrrolidin-2-one [Example 429]	1160 nM	15 nM	
COc1cccc(OC)c1C1CCCCC(=O)N1Cc1cccc(-n2nccn2)c1 (centres unmarked) [Example 101, 1-(3-(2H-1,2,3-triazol-2-yl)benzyl)-7-(2,6-dimethoxyphenyl)azepan-2-one]	3 nM	33 nM	
COc1cccc(OC)c1C1CCCC(=O)N1Cc1cccc(-n2ccnc2)c1 (centres unmarked) [Example 27, 1-(3-(1H-imidazol-1-yl)benzyl)-6-(2,6-dimethoxyphenyl)piperidin-2-one]	136 nM	181 nM	
CCOc1ccccc1[C@@H]1C[C@H](F)C(=O)N1Cc1ccc(OC(F)(F)F)cc1 (racemic) [Example 300, rac-(3S*,5S*)-5-(2-ethoxyphenyl)-3-fluoro-1-(4-(trifluoromethoxy)benzyl)pyrrolidin-2-one]		98 nM	
CCOc1ccc(F)c(F)c1[C@@H]1C[C@@H](O)C(=O)N1Cc1ccc(OC(F)(F)F)cc1 (racemic) [Example 338, rac-(3R*,5S*)-5-(6-ethoxy-2,3-difluorophenyl)-3-hydroxy-1-(4-(trifluoromethoxy)benzyl)pyrrolidin-2-one]		58 nM	
CCCOc1ccc(CN2C(=O)C(C)CC2c2c(F)cccc2OCC)cc1 (centres unmarked) [Example 377, 5-(2-ethoxy-6-fluorophenyl)-3-methyl-1-(4-propoxybenzyl)pyrrolidin-2-one]			IC50 [2]: 95 nM
COc1cccc(F)c1C1CCCC(=O)N1Cc1ccc(OC(F)(F)F)cc1 (centres unmarked) [Example 220, 6-(2-fluoro-6-methoxyphenyl)-1-(4-(trifluoromethoxy)benzyl)piperidin-2-one]			IC50 [2, 5]: 156 nM
COc1cccc(F)c1[C@@H]1C[C@@H](Cl)C(=O)N1Cc1ccc2oc3ccccc3c2c1 (racemic) [Example 396, rac-(3R*,5S*)-3-chloro-1-(dibenzo[b,d]furan-2-ylmethyl)-5-(2-fluoro-6-methoxyphenyl)pyrrolidin-2-one]		29 nM	
CC(C)Oc1cccc(F)c1[C@@H]1C[C@@H](O)C(=O)N1Cc1ccc(OC(F)(F)F)cc1 (racemic) [Example 394, rac-(3R*,5S*)-5-(2-fluoro-6-isopropoxyphenyl)-3-hydroxy-1-(4-(trifluoromethoxy)benzyl)pyrrolidin-2-one]		77 nM	
CCCOc1cccc(F)c1C1CC(C)C(=O)N1Cc1ccc(OC(F)(F)F)cc1 (centres unmarked) [Example 415, 5-(2-fluoro-6-propoxyphenyl)-3-methyl-1-(4-(trifluoromethoxy)benzyl)pyrrolidin-2-one]		291 nM	
COc1cccc(F)c1[C@@H]1C[C@H](Cl)C(=O)N1Cc1ccc2oc3ccccc3c2c1 (racemic) [Example 408, rac-(3S*,5S*)-3-chloro-1-(dibenzo[b,d]furan-2-ylmethyl)-5-(2-fluoro-6-methoxyphenyl)pyrrolidin-2-one]		5 nM	
COc1ccc(F)c(OC)c1[C@@H]1C[C@@H](O)C(=O)N1Cc1ccc(OC(F)(F)F)cc1 (racemic) [Example 311, rac-(3R*,5S*)-5-(3-fluoro-2,6-dimethoxyphenyl)-3-hydroxy-1-(4-(trifluoromethoxy)benzyl)pyrrolidin-2-one]		742 nM	
CCOc1cccc(CN2C(=O)C(C)CC2c2c(F)cccc2OCC)c1 (centres unmarked) [Example 376, 5-(2-ethoxy-6-fluorophenyl)-1-(3-ethoxybenzyl)-3-methylpyrrolidin-2-one]		25 nM	
COc1cc(F)ccc1[C@@H]1C[C@H](F)C(=O)N1Cc1ccc(OC(F)(F)F)cc1 (racemic) [Example 303, rac-(3S*,5S*)-3-fluoro-5-(4-fluoro-2-methoxyphenyl)-1-(4-(trifluoromethoxy)benzyl)pyrrolidin-2-one]		143 nM	
CCOc1cccc(F)c1C1CC(C)C(=O)N1Cc1ccc(OC(F)F)cc1 (centres unmarked) [Example 373, 1-(4-(difluoromethoxy)benzyl)-5-(2-ethoxy-6-fluorophenyl)-3-methylpyrrolidin-2-one]		65 nM	
